“And” between values parts separate entries of the source, which are not always exact repeats. Equal entries are not always repeated. “Also recorded” adds a separate entry of the source. Where two headings read alike, the source gives them in different places.
Assays:
avian influenza virus [1] = tested on: avian influenza virus; parameters: species or system Balb/c mice; details: mouse, in vivo, ip
avian influenza virus [2] = tested on: avian influenza virus; parameters: species or system mice; details: mouse, in vivo, iv

## Core-[PEG-STQKAID]4 [avian influenza MAP4]
Avian influenza virus [1]
  IgG concentration: higher than 100 ng/ml
  induction of IgG and IgM antibodies against the avian influenza virus: enabled induction of IgG and IgM antibodies
  mice in which IgM antibodies were induced: 5 out of 5 mice and increased in all mice
  mice with apparent increase in the IgG level: 3 mice out of 5 mice
  subclasses exhibiting increased IgG antibody levels: IgG and IgG3; also recorded: IgG1 and IgG3
  total level of IgG antibody converted to anti-FLAG antibody: 157 ng/mL and 154 ng/mL and 106 ng/mL and 122 ng/mL and 148 ng/mL and 83 ng/mL
Avian influenza virus [2]
  induction of IgG and IgM antibodies against the avian influenza virus: found to be induced; also recorded: enabled induction of IgG and IgM antibodies

From US20190337989A1, “IMMUNITY INDUCER” (priority 2016, published 2019)
